Key:
Assay in all cases: HTS ATP-utilizing enzyme assay, off-chip mobility-shift (Caliper HTS 250)
Type in all cases: biochemical
Details in all cases: test compound 10 μM, kinase listed = active (greater than six-sigma from the mean activity of inactive compounds)
CHEK1 = molecular target: T1, CHEK1 (Homo sapiens, UniProt O14757)
T1 sequence (O14757 1-476): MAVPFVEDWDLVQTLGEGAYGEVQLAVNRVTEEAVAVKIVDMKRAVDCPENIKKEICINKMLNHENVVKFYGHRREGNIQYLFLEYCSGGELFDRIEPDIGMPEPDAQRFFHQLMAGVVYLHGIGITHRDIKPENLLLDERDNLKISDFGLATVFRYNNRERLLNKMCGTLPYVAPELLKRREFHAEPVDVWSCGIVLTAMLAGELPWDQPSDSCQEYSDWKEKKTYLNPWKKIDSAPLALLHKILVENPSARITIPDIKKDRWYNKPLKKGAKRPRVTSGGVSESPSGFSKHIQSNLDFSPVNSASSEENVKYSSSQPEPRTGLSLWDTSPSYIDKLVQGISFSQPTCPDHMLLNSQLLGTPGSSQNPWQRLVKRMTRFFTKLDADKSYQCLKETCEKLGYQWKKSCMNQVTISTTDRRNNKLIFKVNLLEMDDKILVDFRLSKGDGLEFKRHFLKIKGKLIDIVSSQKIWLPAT
Outline: (§1)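 Compounds were tested once at 10 μM against kinase with peptide substrate. After 2.5 hrs at 20° C. to 22° C., reactions were terminated with EDTA, and conversion was read as substrate/product ratio by mobility shift.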

C-TAK1 = C-TAK1 (Homo sapiens, UniProt P27448)
Outline: as §1

MAPKAPK2 = MAPKAPK2 (Homo sapiens, UniProt P49137)
Outline: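 Phosphorylation of a peptide substrate was quantified by Caliper mobility-shift separation of substrate and product after 2.5 h at 20-22 °C, with compounds tested at 10 μM. Inhibition was normalized to EDTA-quenched (100%) and DMSO (0%) controls; six-sigma thresholds flagged actives.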

BMX = molecular target: T2, BMX (Homo sapiens, UniProt P51813)
T2 sequence (P51813 1-675): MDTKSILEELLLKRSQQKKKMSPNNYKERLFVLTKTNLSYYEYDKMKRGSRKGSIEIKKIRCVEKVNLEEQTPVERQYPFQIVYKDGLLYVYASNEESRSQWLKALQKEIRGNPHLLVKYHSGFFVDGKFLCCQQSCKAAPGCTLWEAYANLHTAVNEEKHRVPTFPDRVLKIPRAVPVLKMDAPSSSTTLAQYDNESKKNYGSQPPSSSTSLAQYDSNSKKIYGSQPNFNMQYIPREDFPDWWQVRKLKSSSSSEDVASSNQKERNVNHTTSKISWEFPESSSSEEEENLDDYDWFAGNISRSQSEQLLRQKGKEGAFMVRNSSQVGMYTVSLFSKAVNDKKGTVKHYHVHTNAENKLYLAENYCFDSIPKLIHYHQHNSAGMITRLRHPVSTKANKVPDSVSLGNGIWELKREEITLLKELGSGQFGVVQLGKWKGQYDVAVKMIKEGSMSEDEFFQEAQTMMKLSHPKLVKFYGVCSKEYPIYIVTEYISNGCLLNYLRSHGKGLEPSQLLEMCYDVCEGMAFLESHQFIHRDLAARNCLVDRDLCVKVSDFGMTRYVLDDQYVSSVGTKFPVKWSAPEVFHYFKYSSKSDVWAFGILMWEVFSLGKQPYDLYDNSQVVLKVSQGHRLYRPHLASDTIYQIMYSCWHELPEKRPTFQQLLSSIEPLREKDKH
Outline: as §1

KIT = KIT (Homo sapiens, UniProt P10721)
Outline: as §1

FLT-3 = molecular target: T3, FLT-3 (Homo sapiens, UniProt P36888)
T3 sequence (P36888 27-993): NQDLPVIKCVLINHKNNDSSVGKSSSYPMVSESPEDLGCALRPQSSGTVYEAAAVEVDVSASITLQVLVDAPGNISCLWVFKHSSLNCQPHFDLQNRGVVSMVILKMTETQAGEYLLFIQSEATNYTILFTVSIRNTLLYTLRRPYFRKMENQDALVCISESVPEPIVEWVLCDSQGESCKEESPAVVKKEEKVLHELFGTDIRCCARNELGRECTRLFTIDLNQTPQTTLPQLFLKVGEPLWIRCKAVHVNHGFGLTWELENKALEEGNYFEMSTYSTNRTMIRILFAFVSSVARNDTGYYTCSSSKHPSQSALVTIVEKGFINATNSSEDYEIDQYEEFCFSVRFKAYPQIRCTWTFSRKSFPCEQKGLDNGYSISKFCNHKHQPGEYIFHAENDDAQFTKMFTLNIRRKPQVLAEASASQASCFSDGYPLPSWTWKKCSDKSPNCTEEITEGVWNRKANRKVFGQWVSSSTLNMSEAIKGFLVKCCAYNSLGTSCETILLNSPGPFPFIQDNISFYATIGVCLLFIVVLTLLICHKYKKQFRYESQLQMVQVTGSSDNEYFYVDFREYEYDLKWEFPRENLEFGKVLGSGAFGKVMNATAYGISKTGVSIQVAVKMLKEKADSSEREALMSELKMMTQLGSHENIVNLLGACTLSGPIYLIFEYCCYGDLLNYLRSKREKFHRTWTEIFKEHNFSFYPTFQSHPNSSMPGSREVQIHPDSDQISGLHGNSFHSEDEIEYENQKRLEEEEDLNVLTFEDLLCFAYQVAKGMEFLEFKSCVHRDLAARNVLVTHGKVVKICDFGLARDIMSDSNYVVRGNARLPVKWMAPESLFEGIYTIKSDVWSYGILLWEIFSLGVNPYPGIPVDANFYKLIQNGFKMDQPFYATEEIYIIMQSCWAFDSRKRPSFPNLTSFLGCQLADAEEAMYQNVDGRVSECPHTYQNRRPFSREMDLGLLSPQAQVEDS
Outline: as §1

PRAK = molecular target: T4, PRAK (Homo sapiens, UniProt Q8IW41)
T4 sequence (Q8IW41 1-473): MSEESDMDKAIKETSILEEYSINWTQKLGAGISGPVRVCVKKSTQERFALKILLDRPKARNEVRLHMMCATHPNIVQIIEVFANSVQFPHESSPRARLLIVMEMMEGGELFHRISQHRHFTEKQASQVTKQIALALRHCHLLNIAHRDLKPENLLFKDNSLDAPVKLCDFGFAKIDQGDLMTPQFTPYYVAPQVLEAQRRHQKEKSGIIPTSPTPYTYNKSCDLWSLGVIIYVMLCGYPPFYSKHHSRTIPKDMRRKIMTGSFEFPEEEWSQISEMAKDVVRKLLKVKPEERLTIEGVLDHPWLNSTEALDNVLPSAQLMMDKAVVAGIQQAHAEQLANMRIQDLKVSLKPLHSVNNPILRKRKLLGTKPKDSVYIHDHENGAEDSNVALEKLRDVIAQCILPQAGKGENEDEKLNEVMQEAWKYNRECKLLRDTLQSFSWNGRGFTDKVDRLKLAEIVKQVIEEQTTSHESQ
Outline: as §1

NEK2 = molecular target: T5, NEK2 (Homo sapiens, UniProt P51955)
T5 sequence (P51955 1-445): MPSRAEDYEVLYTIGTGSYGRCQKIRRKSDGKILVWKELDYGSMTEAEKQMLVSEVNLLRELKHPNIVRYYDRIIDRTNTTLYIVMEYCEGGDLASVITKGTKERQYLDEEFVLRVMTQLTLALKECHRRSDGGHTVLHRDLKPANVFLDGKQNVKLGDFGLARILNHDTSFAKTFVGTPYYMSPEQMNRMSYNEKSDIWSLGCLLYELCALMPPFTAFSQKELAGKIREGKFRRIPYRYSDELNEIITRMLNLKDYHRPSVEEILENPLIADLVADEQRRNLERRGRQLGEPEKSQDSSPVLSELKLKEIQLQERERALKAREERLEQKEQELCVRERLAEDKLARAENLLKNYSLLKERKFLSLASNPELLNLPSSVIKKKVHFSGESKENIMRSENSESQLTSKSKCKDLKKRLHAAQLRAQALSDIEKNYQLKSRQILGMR
Outline: as §1

AKT3 = AKT3 (Homo sapiens, UniProt Q9Y243)
Outline: as §1

CHEK2 = CHEK2 (Homo sapiens, UniProt O96017)
Outline: as §1

GSK3-α = GSK3-α (Homo sapiens, UniProt P49840)
Outline: as §1

Sequence of KIT (P10721 26-976): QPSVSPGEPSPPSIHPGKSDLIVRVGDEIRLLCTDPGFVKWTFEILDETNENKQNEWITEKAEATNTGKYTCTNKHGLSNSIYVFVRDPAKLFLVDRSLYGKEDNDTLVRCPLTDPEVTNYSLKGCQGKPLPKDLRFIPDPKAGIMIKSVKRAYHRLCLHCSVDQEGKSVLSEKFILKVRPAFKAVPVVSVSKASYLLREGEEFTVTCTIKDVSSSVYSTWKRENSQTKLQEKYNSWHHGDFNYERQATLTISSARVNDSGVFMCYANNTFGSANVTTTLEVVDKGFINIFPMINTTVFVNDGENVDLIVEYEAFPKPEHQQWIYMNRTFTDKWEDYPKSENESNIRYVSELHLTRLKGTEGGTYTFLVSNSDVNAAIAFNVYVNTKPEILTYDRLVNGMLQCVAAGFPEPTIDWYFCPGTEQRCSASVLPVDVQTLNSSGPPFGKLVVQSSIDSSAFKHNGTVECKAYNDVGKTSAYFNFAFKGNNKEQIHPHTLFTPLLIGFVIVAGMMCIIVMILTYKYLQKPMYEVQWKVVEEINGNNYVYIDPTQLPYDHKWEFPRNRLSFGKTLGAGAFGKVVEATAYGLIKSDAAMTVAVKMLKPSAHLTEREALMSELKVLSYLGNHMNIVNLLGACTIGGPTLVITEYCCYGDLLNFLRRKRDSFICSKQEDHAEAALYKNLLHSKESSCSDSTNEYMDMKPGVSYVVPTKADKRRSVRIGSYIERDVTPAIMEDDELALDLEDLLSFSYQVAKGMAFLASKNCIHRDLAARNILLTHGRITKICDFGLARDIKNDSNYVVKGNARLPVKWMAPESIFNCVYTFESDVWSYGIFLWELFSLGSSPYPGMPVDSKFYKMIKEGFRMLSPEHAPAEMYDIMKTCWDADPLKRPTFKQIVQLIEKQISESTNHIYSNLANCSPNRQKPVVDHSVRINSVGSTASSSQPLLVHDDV
Sequence of MAPKAPK2 (P49137 whole entry): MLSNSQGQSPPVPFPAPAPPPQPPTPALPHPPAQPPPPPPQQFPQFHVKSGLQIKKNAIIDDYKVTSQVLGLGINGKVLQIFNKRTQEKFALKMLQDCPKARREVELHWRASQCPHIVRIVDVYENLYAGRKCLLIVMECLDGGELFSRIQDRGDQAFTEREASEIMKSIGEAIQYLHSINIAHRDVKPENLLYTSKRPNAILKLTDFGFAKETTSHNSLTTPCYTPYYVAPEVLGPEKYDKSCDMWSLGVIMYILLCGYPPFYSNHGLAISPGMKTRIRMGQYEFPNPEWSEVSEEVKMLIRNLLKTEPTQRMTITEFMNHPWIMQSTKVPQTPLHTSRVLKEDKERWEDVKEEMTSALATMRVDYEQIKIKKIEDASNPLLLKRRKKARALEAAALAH
Sequence of AKT3 (Q9Y243 whole entry): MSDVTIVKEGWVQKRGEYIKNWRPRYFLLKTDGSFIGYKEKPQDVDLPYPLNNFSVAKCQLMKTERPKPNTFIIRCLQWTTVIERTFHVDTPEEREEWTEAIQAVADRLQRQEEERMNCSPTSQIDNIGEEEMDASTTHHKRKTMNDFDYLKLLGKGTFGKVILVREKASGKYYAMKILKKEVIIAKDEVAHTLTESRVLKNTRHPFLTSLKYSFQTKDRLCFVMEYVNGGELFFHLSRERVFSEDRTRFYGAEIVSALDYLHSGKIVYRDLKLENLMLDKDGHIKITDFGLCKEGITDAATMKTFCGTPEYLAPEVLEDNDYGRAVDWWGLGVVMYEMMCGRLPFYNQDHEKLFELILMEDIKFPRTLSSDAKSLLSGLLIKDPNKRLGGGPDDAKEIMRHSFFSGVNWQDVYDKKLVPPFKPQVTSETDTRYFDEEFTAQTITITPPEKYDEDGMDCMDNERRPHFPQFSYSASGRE
Sequence of C-TAK1 (P27448 whole entry): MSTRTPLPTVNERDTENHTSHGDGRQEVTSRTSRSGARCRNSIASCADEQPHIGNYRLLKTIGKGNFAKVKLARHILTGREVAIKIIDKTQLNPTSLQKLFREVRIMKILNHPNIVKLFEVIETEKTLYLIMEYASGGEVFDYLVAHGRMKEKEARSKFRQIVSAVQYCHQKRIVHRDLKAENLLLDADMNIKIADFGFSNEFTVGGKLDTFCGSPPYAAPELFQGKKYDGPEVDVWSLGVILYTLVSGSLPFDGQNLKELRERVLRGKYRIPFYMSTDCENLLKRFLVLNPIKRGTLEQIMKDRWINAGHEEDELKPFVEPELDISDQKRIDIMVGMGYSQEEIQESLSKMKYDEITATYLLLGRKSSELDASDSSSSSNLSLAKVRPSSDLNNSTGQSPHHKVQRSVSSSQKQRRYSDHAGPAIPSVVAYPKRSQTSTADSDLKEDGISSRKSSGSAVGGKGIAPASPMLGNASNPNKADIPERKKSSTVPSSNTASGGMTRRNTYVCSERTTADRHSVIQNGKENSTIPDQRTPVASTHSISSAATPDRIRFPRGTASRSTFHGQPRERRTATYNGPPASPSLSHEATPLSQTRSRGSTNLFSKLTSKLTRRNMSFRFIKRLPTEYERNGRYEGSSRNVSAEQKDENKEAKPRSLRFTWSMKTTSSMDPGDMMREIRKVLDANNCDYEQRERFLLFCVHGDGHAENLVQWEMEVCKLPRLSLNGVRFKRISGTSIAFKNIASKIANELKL
Sequence of GSK3-α (P49840 whole entry): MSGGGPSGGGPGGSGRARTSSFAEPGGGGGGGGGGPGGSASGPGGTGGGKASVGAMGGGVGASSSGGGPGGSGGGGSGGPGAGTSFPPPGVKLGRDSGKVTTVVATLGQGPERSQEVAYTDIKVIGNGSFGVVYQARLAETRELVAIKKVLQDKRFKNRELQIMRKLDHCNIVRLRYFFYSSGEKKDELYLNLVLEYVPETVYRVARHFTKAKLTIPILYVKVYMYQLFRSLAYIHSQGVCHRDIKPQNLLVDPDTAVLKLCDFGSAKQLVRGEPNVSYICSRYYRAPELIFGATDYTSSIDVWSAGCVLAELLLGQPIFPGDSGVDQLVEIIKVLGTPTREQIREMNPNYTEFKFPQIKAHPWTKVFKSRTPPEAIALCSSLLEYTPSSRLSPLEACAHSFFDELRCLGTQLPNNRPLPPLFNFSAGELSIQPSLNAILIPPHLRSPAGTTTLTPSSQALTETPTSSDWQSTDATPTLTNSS
Sequence of CHEK2 (O96017 whole entry): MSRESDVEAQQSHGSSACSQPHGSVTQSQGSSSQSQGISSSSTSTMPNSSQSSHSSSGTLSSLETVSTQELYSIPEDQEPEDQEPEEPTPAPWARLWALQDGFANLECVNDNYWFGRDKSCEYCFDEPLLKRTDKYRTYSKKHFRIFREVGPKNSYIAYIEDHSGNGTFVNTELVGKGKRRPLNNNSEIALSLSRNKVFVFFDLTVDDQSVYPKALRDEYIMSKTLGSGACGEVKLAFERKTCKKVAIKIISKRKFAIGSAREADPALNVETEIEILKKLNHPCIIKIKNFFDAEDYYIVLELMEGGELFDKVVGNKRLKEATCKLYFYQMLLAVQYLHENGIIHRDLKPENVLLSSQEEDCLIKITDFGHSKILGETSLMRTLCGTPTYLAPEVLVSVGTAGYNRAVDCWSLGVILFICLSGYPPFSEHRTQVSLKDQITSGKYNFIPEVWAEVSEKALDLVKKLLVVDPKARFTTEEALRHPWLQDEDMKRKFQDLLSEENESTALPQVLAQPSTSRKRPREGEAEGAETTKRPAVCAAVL

Activity (MAPKAPK2)	Activity (BMX)	Activity (PRAK)	Structure (SMILES)	also measured
MAPKAPK2			CN(C)CCN1CCN(c2ccc(Nc3ccnc4ccc(-c5ccc(C#N)cc5)cc34)cc2)CC1 [4-(4-(4-(4-(2-(dimethylamino)ethyl)piperazin-1-yl)phenylamino)quinolin-6-yl)benzonitrile]	Activity (CHEK1): CHEK1; Activity (C-TAK1): C-TAK1
MAPKAPK2	BMX		CCC(C)N1CCN(c2ccc(Nc3ccnc4ccc(-c5ccc(C#N)cc5)cc34)cc2)CC1 (stereo not drawn) [4-(4-(4-(4-sec-butylpiperazin-1-yl)phenylamino)quinolin-6-yl)benzonitrile]	
MAPKAPK2	BMX		CN1CCN(c2ccc(N(C)c3ccnc4ccc(-c5ccc(C#N)cc5)cc34)cc2)CC1 [4-(4-(methyl(4-(4-methylpiperazin-1-yl)phenyl)amino)quinolin-6-yl)benzonitrile]	Activity (KIT): KIT; Activity (FLT-3): FLT-3
MAPKAPK2		PRAK	CN1CCN(c2ccc(Nc3ccnc4ccc(-c5ccc(C(C)(C)C)cc5)cc34)cc2)CC1 [6-(4-tert-butylphenyl)-N-(4-(4-methylpiperazin-1-yl)phenyl)quinolin-4-amine]	Activity (CHEK1): CHEK1; Activity (C-TAK1): C-TAK1; Activity (NEK2): NEK2
MAPKAPK2		PRAK	CN1CCN(c2ccc(Nc3ccnc4ccc(-c5cccc(CO)c5)cc34)cc2)CC1 [(3-(4-(4-(4-methylpiperazin-1-yl)phenylamino)quinolin-6-yl)phenyl)methanol]	Activity (FLT-3): FLT3; Activity (CHEK2): CHEK2
MAPKAPK2	BMX		COc1ccc(-c2ccc3nccc(Nc4ccc(N5CCN(C(C)C)CC5)cc4)c3c2)cc1 [N-(4-(4-isopropylpiperazin-1-yl)phenyl)-6-(4-methoxyphenyl)quinolin-4-amine]	
		PRAK	CN1CCN(c2ccc(Nc3ccnc4ccc(-c5cccc([N+](=O)[O-])c5)cc34)cc2)CC1 [N-(4-(4-methylpiperazin-1-yl)phenyl)-6-(3-nitrophenyl)quinolin-4-amine]	Activity (AKT3): AKT3
		PRAK	CN1CCN(c2ccc(Nc3ccnc4ccc(-c5ccc(C(F)(F)F)cc5)cc34)cc2)CC1 [N-(4-(4-methylpiperazin-1-yl)phenyl)-6-(4-(trifluoromethyl)phenyl)quinolin-4-amine]	Activity (CHEK1): CHEK1; Activity (C-TAK1): C-TAK1; Activity (NEK2): NEK2

Second part, the compound before the results:

Structure (SMILES)	Activity (MAPKAPK2)	Activity (BMX)	Activity (PRAK)	also measured
Cc1ccc(C)c(-c2ccc3nccc(Nc4ccc(N5CCN(C)CC5)cc4)c3c2)c1 [6-(2,5-dimethylphenyl)-N-(4-(4-methylpiperazin-1-yl)phenyl)quinolin-4-amine]	MAPKAPK2		PRAK	Activity (NEK2): NEK2; Activity (AKT3): AKT3
CC(=O)Nc1cccc(-c2ccc3nccc(Nc4ccc(N5CCN(C)CC5)cc4)c3c2)c1 [N-(3-(4-(4-(4-methylpiperazin-1-yl)phenylamino)quinolin-6-yl)phenyl)acetamide]	MAPKAPK2		PRAK	Activity (GSK3-α): GSK3-α
CN1CCN(c2ccc(Nc3ccnc4ccc(-c5cccc6cccnc56)cc34)cc2)CC1 [N-(4-(4-methylpiperazin-1-yl)phenyl)-6,8′-biquinolin-4-amine]	MAPKAPK2	BMX	PRAK	Activity (KIT): KIT
CN1CCN(c2ccc(Nc3ccnc4ccc(-c5cc(F)c(F)c(F)c5)cc34)cc2)CC1 [N-(4-(4-methylpiperazin-1-yl)phenyl)-6-(3,4,5-trifluorophenyl)quinolin-4-amine]	MAPKAPK2		PRAK	Activity (CHEK1): CHEK1; Activity (NEK2): NEK2
CN1CCN(c2ccc(Nc3ccnc4ccc(-c5cccnc5)cc34)cc2)CC1 [N-(4-(4-methylpiperazin-1-yl)phenyl)-6-(pyridin-3-yl)quinolin-4-amine]	MAPKAPK2		PRAK	Activity (AKT3): AKT3
CN1CCN(c2ccc(N(C)c3ccnc4ccc(-c5ccccc5)cc34)cc2)CC1 [N-methyl-N-(4-(4-methylpiperazin-1-yl)phenyl)-6-phenylquinolin-4-amine]	MAPKAPK2	BMX		Activity (KIT): KIT; Activity (FLT-3): FLT-3

— US7452887B2, “Quinoline- and isoquinoline-based compounds exhibiting ATP-utilizing enzyme inhibitory activity, and compositions, and uses thereof” (Amphora Discovery Corporation, priority 2004, dated 2008)
